Laboratory results reported in patent US10294202B2, “Pyrrolidinones as herbicides” (FMC Corporation, priority 2013, dated 2019).

Key:
barnyardgrass = experiment: Test A pre-/postemergence herbicide test; format: in vivo, Echinochloa crus-galli
In short: (§1)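 Visual 0–100 ratings (100 = complete control) made about 10 days after treatment, greenhouse-held plants compared with untreated controls. Treatments: postemergence sprays on one- to two-leaf plants (2–10 cm tall) and preemergence directed soil sprays after planting in loam–sand, chemicals formulated in non-phytotoxic solvent containing surfactant.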

kochia = experiment: Test A pre-/postemergence herbicide test; format: in vivo, Kochia scoparia; settings: for Plant response rating, Kochia: 0 to 100 scale
In short: as §1

ragweed = experiment: Test A pre-/postemergence herbicide test; format: in vivo, Ambrosia elatior; settings: for Plant response rating, Ragweed: 0 to 100 scale
Text: (§2) Seeds of plant species selected from bamyardgrass (Echinochloa crus-galli), kochia (Kochia scoparia), ragweed (common ragweed, Ambrosia elatior), ryegrass, Italian (Italian ryegrass, Lolium multiflorum), crabgrass, large (large crabgrass Digitaria sanguinalis), giant foxtail (Setaria faberii), morningglory (Ipomoea spp.), pigweed (Amaranthus retroflexus), velvetleaf (Abutilon theophrasti), wheat (Triticum aestivum), and corn (Zea mays) were planted into a blend of loam soil and sand and treated preemergence with a directed soil spray using test chemicals formulated in a non-phytotoxic solvent mixture which included a surfactant. At the same time, plants selected from these crop and weed species and also blackgrass (Alopecurus myosuroides), and galium (catchweed bedstraw, Galium aparine) were planted in pots containing the same blend of loam soil and sand and treated with postemergence applications of test chemicals formulated in the same manner. Plants ranged in height from 2 to 10 cm and were in the one- to two-leaf stage for the postemergence treatment. Treated plants and untreated controls were maintained in a greenhouse for approximately 10 days, after which time all treated plants were compared to untreated controls and visually evaluated for injury. Plant response ratings, summarized in Table A, are based on a 0 to 100 scale where 0 is no effect and 100 is complete control. A dash (-) response means no test result.

ryegrass, Italian = experiment: Test A pre-/postemergence herbicide test; format: in vivo, Lolium multiflorum; settings: for Plant response rating, Ryegrass, Italian: 0 to 100 scale
Text: as §2

giant foxtail = experiment: Test A pre-/postemergence herbicide test; format: in vivo, Setaria faberii; settings: for Plant response rating, Foxtail, Giant: 0 to 100 scale
In short: as §1

pigweed = experiment: Test A pre-/postemergence herbicide test; format: in vivo, Amaranthus retroflexus; settings: for Plant response rating, Pigweed: 0 to 100 scale
In short: as §1

wheat = experiment: Test A pre-/postemergence herbicide test; format: in vivo, Triticum aestivum; settings: Postemergence; for Plant response rating, Wheat: 125 g ai/ha, 0 to 100 scale, 0 is no effect, 100 is complete control; for Wheat plant response rating (0 to 100 scale, 0 is no effect, 100 is complete control): 500 g ai/ha
In short: as §1

corn = experiment: Test A pre-/postemergence herbicide test; format: in vivo, Zea mays; settings: Postemergence; for Plant response rating, Corn: 125 g ai/ha, 0 to 100 scale, 0 is no effect, 100 is complete control; for Corn plant response rating (0 to 100 scale, 0 is no effect, 100 is complete control): 500 g ai/ha
In short: as §1

blackgrass = experiment: Test A postemergence herbicide test; format: in vivo, Alopecurus myosuroides; settings: for Plant response rating, Blackgrass: 125 g ai/ha, 0 to 100 scale, 0 is no effect, 100 is complete control; for Blackgrass plant response rating (0 to 100 scale, 0 is no effect, 100 is complete control): 500 g ai/ha
In short: (§3)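 Blackgrass and galium grown in pots of loam soil–sand blend, treated postemergence at 2–10 cm height, one- to two-leaf stage. Plants kept in greenhouse ~10 days, then visually rated for injury against untreated controls on a 0–100 scale (0 no effect, 100 complete control).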

galium = experiment: Test A postemergence herbicide test; format: in vivo, Galium aparine; settings: for Plant response rating, Galium: 125 g ai/ha, 0 to 100 scale, 0 is no effect, 100 is complete control; for Galium plant response rating (0 to 100 scale, 0 is no effect, 100 is complete control): 500 g ai/ha
In short: as §3

[1] = 125 g ai/ha, visual rating, 0 to 100 scale, 0 no effect, 100 complete control, approximately 10 days, preemergence
[2] = Postemergence, 125 g ai/ha, 0 to 100 scale, 0 is no effect, 100 is complete control
[3] = 125 g ai/ha, visual rating, 0 no effect, 100 complete control, approximately 10 days, preemergence
[4] = Postemergence, 125 g ai/ha, 0 is no effect, 100 is complete control
[5] = preemergence, 500 g ai/ha, 0 is no effect and 100 is complete control

Structure (SMILES) | Plant response rating, Barnyardgrass (barnyardgrass; [1]) | Plant response rating, Barnyardgrass (barnyardgrass; [2]) | Barnyardgrass plant response rating (0 to 100 scale, 0 is no effect, 100 is complete control) (barnyardgrass; Postemergence, 500 g ai/ha) | Plant response rating, Kochia (kochia; [3]) | Plant response rating, Kochia (kochia; [4]) | Kochia plant response rating (0 to 100 scale, 0 is no effect, 100 is complete control) (kochia; Postemergence, 500 g ai/ha) | Plant response rating, Kochia (kochia; [5]) | Plant response rating, Ragweed (ragweed; [3]) | Plant response rating, Ragweed (ragweed; [4]) | Ragweed plant response rating (0 to 100 scale, 0 is no effect, 100 is complete control) (ragweed; Postemergence, 500 g ai/ha) | Plant response rating, Ragweed (ragweed; [5]) | Plant response rating, Ryegrass, Italian (ryegrass, Italian; [3]) | Plant response rating, Ryegrass, Italian (ryegrass, Italian; [4]) | Ryegrass, Italian plant response rating (0 to 100 scale, 0 is no effect, 100 is complete control) (ryegrass, Italian; Postemergence, 500 g ai/ha) | Plant response rating, Ryegrass, Italian (ryegrass, Italian; [5]) | Plant response rating, Foxtail, Giant (giant foxtail; [3]) | Plant response rating, Foxtail, Giant (giant foxtail; [4]) | Foxtail, Giant plant response rating (0 to 100 scale, 0 is no effect, 100 is complete control) (giant foxtail; Postemergence, 500 g ai/ha) | Plant response rating, Pigweed (pigweed; [3]) | Plant response rating, Pigweed (pigweed; [4]) | other results
O=C1NCC(c2ccc(OC(F)(F)C(F)F)cc2)C1C(=O)Nc1cccc(F)c1F (racemic) [Compound 172] | 0 | 0 | 20 | 30 | 0 | 0 | 30 | 0 | 0 | 0 | 0 | 0 | 0 | 0 | 0 | 20 | 0 | 30 | 0 | 0 | Plant response rating, Barnyardgrass (barnyardgrass; preemergence, 500 g ai/ha, 0 to 100 scale (0 no effect, 100 complete control)): 20; Plant response rating, Foxtail, Giant (giant foxtail; preemergence, 500 g ai/ha): 30; Pigweed plant response rating (0 to 100 scale, 0 is no effect, 100 is complete control) (pigweed; Postemergence, 500 g ai/ha): 0; Plant response rating, Pigweed (pigweed; [5]): 0; Plant response rating, Wheat (wheat): 0; Wheat plant response rating (0 to 100 scale, 0 is no effect, 100 is complete control) (wheat): 0; Plant response rating, Corn (corn): 0; Corn plant response rating (0 to 100 scale, 0 is no effect, 100 is complete control) (corn): 0; Plant response rating, Blackgrass (blackgrass): 0; Blackgrass plant response rating (0 to 100 scale, 0 is no effect, 100 is complete control) (blackgrass): 0; Plant response rating, Galium (galium): 0; Galium plant response rating (0 to 100 scale, 0 is no effect, 100 is complete control) (galium): 0
O=C1NCC(c2ccc(OC(F)(F)C(F)F)cc2)C1C(=O)Nc1ccc(F)c(F)c1F (racemic) [Compound 174] | 0 | 0 | 20 | 0 | 0 | 0 | 20 | 0 | 0 | 0 | 0 | 0 | 0 | 0 | 0 | 30 | 20 | 30 | 0 | 0 | Plant response rating, Barnyardgrass (barnyardgrass; preemergence, 500 g ai/ha, 0 to 100 scale, 0 is no effect and 100 is complete control): 20; Plant response rating, Foxtail, Giant (giant foxtail; [5]): 50; Pigweed plant response rating (0 to 100 scale, 0 is no effect, 100 is complete control) (pigweed; Postemergence, 500 g ai/ha): 0; Plant response rating, Pigweed (pigweed; [5]): 0; Plant response rating, Wheat (wheat): 0; Wheat plant response rating (0 to 100 scale, 0 is no effect, 100 is complete control) (wheat): 0; Plant response rating, Corn (corn): 0; Corn plant response rating (0 to 100 scale, 0 is no effect, 100 is complete control) (corn): 0; Plant response rating, Blackgrass (blackgrass): 0; Blackgrass plant response rating (0 to 100 scale, 0 is no effect, 100 is complete control) (blackgrass): 0; Plant response rating, Galium (galium): 0; Galium plant response rating (0 to 100 scale, 0 is no effect, 100 is complete control) (galium): 0
